From ChEMBL document CHEMBL1141299, “Hologram QSAR model for the prediction of human oral bioavailability” (Bioorg Med Chem, 2007) come the findings set out here.

The nature of one data set: Oral bioavailability in human. Particulars: in vivo.
Turning to `Cc1ncc2n1-c1ccc(Cl)cc1C(c1ccccc1F)=NC2` [MIDAZOLAM], the bioavailability worked out at 40.5%.

For the compound `COc1c(N2C[C@@H]3CCCN[C@@H]3C2)c(F)cc2c(=O)c(C(=O)O)cn(C3CC3)c12` [MOXIFLOXACIN], the bioavailability was 90%.

Compound `Oc1ccc2c3c1O[C@H]1[C@@H](O)CC[C@@]4(O)[C@@H](C2)N(CC2CCC2)CC[C@]314` [NALBUPHINE] displayed a bioavailability of 11%.

For the compound `C=CCN1CC[C@]23c4c5ccc(O)c4O[C@H]2C(=O)CC[C@@]3(O)[C@H]1C5` [NALOXONE], the bioavailability was 2%.

`O=C1CC[C@@]2(O)[C@H]3Cc4ccc(O)c5c4[C@@]2(CCN3CC2CC2)[C@H]1O5` [NALTREXONE] yielded a bioavailability of 20%.

For `Cc1ccnc2c1NC(=O)c1cccnc1N2C1CC1` [NEVIRAPINE], the bioavailability is 93%.

The compound `COC(=O)C1=C(C)NC(C)=C(C(=O)OC)C1c1ccccc1[N+](=O)[O-]` [NIFEDIPINE] showed a bioavailability of 50%.

Turning to `O=C1CN=C(c2ccccc2)c2cc([N+](=O)[O-])ccc2N1` [NITRAZEPAM], the bioavailability came to 78%.

In turn, `C[C@H](N)Cc1cccc(C(F)(F)F)c1` [NORDEXFENFLURAMINE] showed a bioavailability of 85%.

For `CCOC(=O)C1=C[C@@H](OC(CC)CC)[C@H](NC(C)=O)[C@@H](N)C1` [OSELTAMIVIR], the bioavailability amounted to 75%.

`c1ccc(C2(N3CCCCC3)CCCCC2)cc1` [PHENCYCLIDINE]: the bioavailability stood at 72%.

As to `CCC1(c2ccccc2)C(=O)NC(=O)NC1=O` [PHENOBARBITAL], the bioavailability was 96%.

For `CCC(C(N)=O)(C(N)=O)c1ccccc1` [PHENYLETHYLMALONAMIDE], the bioavailability was determined as 91%.

Consider `CNC(=O)Oc1ccc2c(c1)[C@]1(C)CCN(C)[C@@H]1N2C` [PHYSOSTIGMINE], for which the bioavailability was found to be 6%.

In turn, `C[C@@H]1O[C@@H](O[C@@H]2C=C3CC[C@@H]4[C@H](CC[C@]5(C)[C@@H](c6ccc(=O)oc6)CC[C@]45O)[C@@]3(C)CC2)[C@H](O)[C@H](O)[C@H]1O` [PROSCILLARIDIN] gave a bioavailability of 7%.

For `NC(=O)c1ncn([C@@H]2O[C@H](CO)[C@@H](O)[C@H]2O)n1` [RIBAVIRIN], the bioavailability was determined as 64%.

Turning to `Cc1nc2n(c(=O)c1CCN1CCC(c3noc4cc(F)ccc34)CC1)CCCC2` [RISPERIDONE], the bioavailability was 70%.

With `C[C@]12CC[C@H]3[C@@H](CCC4=CC(=O)CC[C@@]43C)[C@@H]1CC[C@@H]2O` [TESTOSTERONE], the bioavailability amounted to 7%.

For the compound `Cn1c(=O)c2[nH]cnc2n(C)c1=O.O` [THEOPHYLLINE], the bioavailability was determined as 98.8%.

`COc1cccc([C@@]2(O)CCCC[C@@H]2CN(C)C)c1` [TRAMADOL] showed a bioavailability of 75%.

The same data set, now with this note: in vivo, F.
`CS(=O)(=O)c1ccc2c(c1)N(CCCN1CCC(C(N)=O)CC1)c1ccccc1S2` [METOPIMAZINE] displayed a bioavailability of 19%.

Compound `Cc1[nH]c(=O)c(C#N)cc1-c1ccncc1` [MILRINONE] registered a bioavailability of 92%.

Take `CN(C)c1ccc(O)c2c1C[C@H]1C[C@H]3[C@H](N(C)C)C(O)=C(C(N)=O)C(=O)[C@@]3(O)C(O)=C1C2=O` [MINOCYCLINE]: the bioavailability came out at 97.5%.

Compound `CCOC(=O)[C@H](CCc1ccccc1)N[C@@H](C)C(=O)N1Cc2cc(OC)c(OC)cc2C[C@H]1C(=O)O` [MOEXIPRIL] returned a bioavailability of 13%.

`CC(C)(O)c1ccccc1CC[C@@H](SCC1(CC(=O)O)CC1)c1cccc(/C=C/c2ccc3ccc(Cl)cc3n2)c1` [MONTELUKAST] yielded a bioavailability of 73%.

`COc1c(C)c2c(c(O)c1C/C=C(\C)CCC(=O)O)C(=O)OC2` [MYCOPHENOLIC ACID] gave a bioavailability of 72%.

`O=C1CN(/N=C/c2ccc([N+](=O)[O-])o2)C(=O)N1` [NITROFURANTOIN] registered a bioavailability of 87%.

As to `CNC(=C[N+](=O)[O-])NCCSCc1csc(CN(C)C)n1` [NIZATIDINE], the bioavailability was 70%.

`C#C[C@]1(O)CC[C@H]2[C@@H]3CCC4=CC(=O)CC[C@@H]4[C@H]3CC[C@@]21C` [NORETHINDRONE] gave a bioavailability of 64%.

In turn, `CNC/C=C(\c1ccc(Br)cc1)c1cccnc1` [NORZIMELIDINE] yielded a bioavailability of 66%.

In the case of `CCCc1nc(C(C)(C)O)c(C(=O)O)n1Cc1ccc(-c2ccccc2-c2nnn[nH]2)cc1` [OLMESARTAN], the bioavailability is 26%.

The compound `CN(C)[C@@H]1C(O)=C(C(N)=O)C(=O)[C@@]2(O)C(O)=C3C(=O)c4c(O)cccc4[C@@](C)(O)[C@H]3[C@H](O)[C@@H]12` [OXYTETRACYCLINE] registered a bioavailability of 58%.

Turning to `COc1ccnc(C[S+]([O-])c2nc3ccc(OC(F)F)cc3[nH]2)c1OC` (centres undefined) [PANTOPRAZOLE], the bioavailability came to 77%.

For `CC1(C)S[C@@H]2[C@H](NC(=O)Cc3ccccc3)C(=O)N2[C@H]1C(=O)O` [PENICILLIN G], the bioavailability came out at 22.5%.

Consider `O=C1NC(=O)C(c2ccccc2)(c2ccccc2)N1` [PHENYTOIN], for which the bioavailability stood at 90%.

Compound `CN(C)S(=O)(=O)c1ccc2c(c1)N(CCCN1CCC(CCO)CC1)c1ccccc1S2` [PIPOTIAZINE] returned a bioavailability of 26%.

Compound `O=C(O)Cc1nn(-c2ccc(F)cc2)cc1-c1ccc(Cl)cc1` [PIRAZOLAC] registered a bioavailability of 93.5%.

As for `CN1C(C(=O)Nc2ccccn2)=C(O)c2ccccc2S1(=O)=O` [PIROXICAM], the bioavailability was 100%.

As to `CC[C@H](C)C(=O)O[C@H]1C[C@H](O)C=C2C=C[C@H](C)[C@H](CC[C@@H](O)C[C@@H](O)CC(=O)O)[C@H]21` [PRAVASTATIN], the bioavailability was found to be 17%.

Consider `COc1cc2nc(N3CCN(C(=O)c4ccco4)CC3)nc(N)c2cc1OC` [PRAZOSIN], for which the bioavailability was found to be 68%.

As for `C[C@]12C=CC(=O)C=C1CC[C@@H]1[C@@H]2[C@@H](O)C[C@@]2(C)[C@H]1CC[C@]2(O)C(=O)COP(=O)(O)O` [PREDNISOLONE PHOSPHORIC ACID], the bioavailability was determined as 82%.

The compound `C[C@]12C=CC(=O)C=C1CC[C@@H]1[C@@H]2C(=O)C[C@@]2(C)[C@H]1CC[C@]2(O)C(=O)CO` [PREDNISONE] displayed a bioavailability of 80%.

Compound `CCC1(c2ccccc2)C(=O)NCNC1=O` [PRIMIDONE] showed a bioavailability of 92%.

For the compound `CCN(CC)CCNC(=O)c1ccc(N)cc1` [PROCAINAMIDE], the bioavailability turned out to be 83%.

Regarding `CCCc1cc(=O)[nH]c(=S)[nH]1` [PROPYLTHIOURACIL], the bioavailability amounted to 78%.

Regarding `CNCCCC1c2ccccc2C=Cc2ccccc21` [PROTRIPTYLINE], the bioavailability came out at 85%.

As for `C=C[C@H]1C[N@@]2CC[C@H]1C[C@@H]2[C@@H](O)c1ccnc2ccc(OC)cc12` [QUINIDINE], the bioavailability is 75%.

In turn, `CC(C)(C)NC[C@@H](O)COc1cccc2c1C[C@H](O)[C@H](O)C2` [R-NADOLOL] showed a bioavailability of 34%.

In turn, `O=C(c1ccc(OCCN2CCCCC2)cc1)c1c(-c2ccc(O)cc2)sc2cc(O)ccc12` [RALOXIFENE] gave a bioavailability of 2%.

As to `CCOc1cc(CC(=O)N[C@@H](CC(C)C)c2ccccc2N2CCCCC2)ccc1C(=O)O` [REPAGLINIDE], the bioavailability stood at 56%.

In turn, `CO[C@H]1/C=C/O[C@@]2(C)Oc3c(C)c(O)c4c(O)c(c(/C=N/N5CCN(C)CC5)c(O)c4c3C2=O)NC(=O)/C(C)=C\C=C\[C@H](C)[C@H](O)[C@@H](C)[C@@H](O)[C@@H](C)[C@H](OC(C)=O)[C@@H]1C` [RIFAMPIN] yielded a bioavailability of 88.8%.

`CN(C)CCc1c[nH]c2ccc(Cn3cncn3)cc12` [RIZATRIPTAN]: the bioavailability turned out to be 45%.

With `CS(=O)(=O)c1ccc(C2=C(c3ccccc3)C(=O)OC2)cc1` [ROFECOXIB], the bioavailability was determined as 93%.

`CCCN(CCC)CCc1cccc2c1CC(=O)N2` [ROPINIROLE] registered a bioavailability of 55%.

`CC(C)(C)NC[C@H](O)COc1cccc2c1C[C@H](O)[C@H](O)C2` [S-NADOLOL] displayed a bioavailability of 34%.

`Cc1cccc(C)c1NC(=O)[C@H](C)N` [S-TOCAINIDE] showed a bioavailability of 89%.

On to `O=C1NS(=O)(=O)c2ccccc21` [SACCHARIN], for which the bioavailability turned out to be 84%.

The compound `CO[C@H]1C[C@@H]2CC[C@@H](C)[C@@](O)(O2)C(=O)C(=O)N2CCCC[C@H]2C(=O)O[C@H]([C@H](C)C[C@@H]2CC[C@@H](O)[C@H](OC)C2)CC(=O)[C@H](C)/C=C(\C)[C@@H](O)[C@@H](OC)C(=O)[C@H](C)C[C@H](C)/C=C/C=C/C=C/1C` [SIROLIMUS] had a bioavailability of 14%.

In turn, `CC(=O)S[C@@H]1CC2=CC(=O)CC[C@]2(C)[C@H]2CC[C@@]3(C)[C@@H](CC[C@@]34CCC(=O)O4)[C@H]12` [SPIRONOLACTONE] came in with a bioavailability of 25%.

For the compound `Cc1cn([C@H]2C=C[C@@H](CO)O2)c(=O)[nH]c1=O` [STAVUDINE], the bioavailability was 82%.

The compound `C=CC[C@@H]1/C=C(\C)C[C@H](C)C[C@H](OC)[C@H]2O[C@@](O)(C(=O)C(=O)N3CCCC[C@H]3C(=O)O[C@H](/C(C)=C/[C@@H]3CC[C@@H](O)[C@H](OC)C3)[C@H](C)[C@@H](O)CC1=O)[C@H](C)C[C@@H]2OC` [TACROLIMUS ANHYDROUS] showed a bioavailability of 17%.

Regarding `C[C@@H](C(=O)O)c1ccc(-c2ccccc2)c(F)c1` [TARENFLURBIL], the bioavailability was found to be 92%.

`Cc1scc2c1N(C(=O)CN1CCN(C)CC1)c1ccccc1NC2=O` [TELENZEPINE] showed a bioavailability of 54%.

As for `CC[C@H]1OC(=O)[C@H](C)C(=O)[C@H](C)[C@@H](O[C@@H]2O[C@H](C)C[C@H](N(C)C)[C@H]2O)[C@](C)(OC)C[C@@H](C)C(=O)[C@H](C)[C@H]2N(CCCCn3cnc(-c4cccnc4)c3)C(=O)O[C@]12C` [TELITHROMYCIN], the bioavailability is 57%.

For `CN(C)[C@@H]1C(O)=C(C(N)=O)C(=O)[C@@]2(O)C(O)=C3C(=O)c4c(O)cccc4[C@@](C)(O)[C@H]3C[C@@H]12` [TETRACYCLINE], the bioavailability turned out to be 77%.

For the compound `CCCCNC(=O)NS(=O)(=O)c1ccc(C)cc1` [TOLBUTAMIDE], the bioavailability turned out to be 85%.

`CC1(C)O[C@@H]2[C@@H](CO[C@@]3(COS(N)(=O)=O)OC(C)(C)O[C@@H]23)O1` [TOPIRAMATE] returned a bioavailability of 70%.

The compound `CC[C@@]1(O)C(=O)OCc2c1cc1n(c2=O)Cc2cc3c(CN(C)C)c(O)ccc3nc2-1` [TOPOTECAN] returned a bioavailability of 32%.

`Cc1cccc(Nc2ccncc2S(=O)(=O)NC(=O)NC(C)C)c1` [TORSEMIDE] showed a bioavailability of 91%.

The bioavailability is the share of a dose that reaches the circulation, judged against a reference dose that is usually intravenous. The low end stands for little systemic uptake, the high end for much systemic uptake.
